From patent US20240383882A1 (Ecstasy LLC, priority 2020, published 2024)
Read-outs that look alike come from different tables or passages of the source.

Test system: male C57BL/6 mice
Assay: 55° C. warm-water tail-flick test (antinociception)
Format: in vivo
Details: Mus musculus
Procedure, shortened: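 Subcutaneous dosing, then tail immersion in 55° C water at 30–120 min; latency normalized as 100×(test−control)/(20−control), using a 20 s cutoff, after excluding mice not responding within 2 s at baseline. Values expressed as ED50 (mg/kg).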

[1] = half maximal effective dose in mice, using one of: warm water tail-flick test, spared nerve injury, chronic constriction injury, or Complete Freund's adjuvant induced inflammatory pain (not stated which per compound), read-out: Biological Activity (ED50)
[2] = sc, 0.5 h, compounds of Table I, s.c., 30 min, 55° C. water, configuration tested as in Table II, read-out: ED50 (mg/kg) at 30 min on C57BL/6 mice in Warm-water Tail-flick Test
[3] = sc, 0.5 h, compounds of Table III, s.c., 30 min, 55° C. water, configuration tested as in Table IV, read-out: ED50 (mg/kg) at 30 min on C57BL/6 mice in Warm-water Tail-flick Test (same as Table II)
[4] = sc, 0.5 h, compounds of Table V, s.c., 30 min, 55° C. water, read-out: ED50 (mg/kg) at 30 min on C57BL/6 mice in Warm-water Tail-flick Test (same conditions as Table II)

Structure (SMILES) | ED50 [1] | further results
CC(C)(c1ccccn1)N1CC[C@](CCc2ccc(C#N)cc2)(C(O)C(F)(F)F)C1 (single isomer, unassigned) [Compound 223] | > 50 mg/kg | –
Cc1ccnc(C)c1CN1CC[C@@](CCc2ccc(C#N)cc2)(C(O)C(F)(F)F)C1 (single isomer, unassigned) [Compound 227, 4-(2-((R)-1-((2,4-dimethylpyridin-3-yl)methyl)-3-((R or S)-2,2,2-trifluoro-1-hydroxyethyl)pyrrolidin-3-yl)ethyl) benzonitrile] | > 50 mg/kg | –
CC(C)(c1ccc(F)cn1)N1CC[C@](CCc2ccc(C#N)cc2)(C(O)C(F)(F)F)C1 (single isomer, unassigned) [Compound 229, 4-(2-((S)-1-(2-(5-fluoropyridin-2-yl)propan-2-yl)-3-((R or S)-2,2,2-trifluoro-1-hydroxyethyl)pyrrolidin-3-yl)ethyl) benzonitrile] | > 50 mg/kg | –
Cc1ccc(C(C)(C)N2CCC(CCc3ccc(F)s3)(c3ncc(C(C)(C)C)[nH]3)C2)cn1 (single isomer, unassigned) [Compound 282] | – | ED50 [2]: ≤ 30 mg/kg
Cc1ccc(C(C)(C)N2CCC(CCc3ccc(F)s3)(CNS(C)(=O)=O)C2)cn1 (single isomer, unassigned) [Compound 313] | – | ED50 [2]: ≤ 30 mg/kg
Cc1ccc(C(C)(C)N2CCC(CCc3ccc(F)s3)(C(NS(C)(=O)=O)c3ccccn3)C2)cn1 (single isomer, unassigned) [Compound 319] | – | ED50 [2]: ≤ 30 mg/kg
Cc1ccc(C(C)(C)N2CCC(CCc3ccc(F)s3)(CNS(=O)(=O)C(C)C)C2)cn1 (single isomer, unassigned) [Compound 320] | – | ED50 [2]: ≤ 30 mg/kg
Cc1ccc(S(=O)(=O)NC(c2ccccn2)C2(CCc3ccc(F)s3)CCN(C(C)(C)c3ccc(C)nc3)C2)cc1 (single isomer, unassigned) [Compound 321] | – | ED50 [2]: ≤ 30 mg/kg
Cc1ccc(C(C)(C)N2CCC(CCc3ccc(F)s3)(CNS(=O)(=O)O)C2)cn1 (single isomer, unassigned) [Compound 322] | – | ED50 [2]: ≤ 30 mg/kg
CCOCC1(CCc2ccc(F)cc2)CCN(Cc2ccccc2)C1 (stereo in doubt) [Compound 4, (S)-1-benzyl-3-(ethoxymethyl)-3-(4-fluorophenethyl) pyrrolidine] | > 50 mg/kg | ED50 [2]: ≤ 30 mg/kg; ED50 [3]: > 50 mg/kg; ED50 [4]: ≤ 30 mg/kg
CC(C)(c1ccccn1)N1CC[C@@](CCc2ccc(C#N)cc2)(C(C)(C)O)C1 [(R)-4-(2-(3-(2-hydroxypropan-2-yl)-1-(2-(pyridin-2-yl)propan-2-yl)pyrrolidin-3-yl)ethyl) benzonitrile] | > 50 mg/kg | –
CCOC[C@]1(CCc2ccc(F)cc2)CCN(Cc2ccc(OC)nc2)C1 [Compound 1, (R)-5-((3-(ethoxymethyl)-3-(4-fluorophenethyl)pyrrolidin-1-yl)methyl)-2-methoxypyridine] | > 50 mg/kg | –
CCOC[C@]1(CCc2ccc(F)cc2)CCN(Cc2cnc(OC)cc2C#N)C1 [Compound 2, (R)-5-((3-(ethoxymethyl)-3-(4-fluorophenethyl)pyrrolidin-1-yl)methyl)-2-methoxy-isonicotino nitrile] | ≤ 30 mg/kg | –
CCOC[C@]1(CCc2ccc(C#N)cc2)CCN(Cc2cccnc2)C1 [Compound 3, (R)-4-(2-(3-(ethoxymethyl)-1-(pyridin-3-ylmethyl)pyrrolidin-3-yl)ethyl) benzonitrile] | ≤ 30 mg/kg | –
CCOCC1(CCc2ccccc2)CCN(C(C)(C)c2ccc(-c3cn[nH]n3)cc2)CC1 [Compound 5] | – | ED50 [4]: ≤ 30 mg/kg
CCOC[C@]1(CCc2ccc(F)cc2)CCN(Cc2cccnc2C(N)=O)C1 [Compound 5] | > 50 mg/kg | –
CCOC[C@]1(CCc2ccccc2)CCN(C(C)(C)c2ccc(Br)cc2)C1 [Compound 5] | – | ED50 [3]: ≤ 30 mg/kg
CCOC(C(F)(F)F)(C(F)(F)F)[C@]1(CCc2ccc(C#N)cc2)CCN(C(C)(C)c2ccc(C)nc2)C1 [Compound 6, (R)-4-(2-(3-(2-ethoxy-1,1,1,3,3,3-hexafluoropropan-2-yl)-1-(2-(6-methylpyridin-3-yl)propan-2-yl)pyrrolidin-3-yl)ethyl) benzonitrile] | ≤ 30 mg/kg | –
CCOC(C(F)(F)F)(C(F)(F)F)[C@]1(CCc2ccc(C)cc2)CCN(C(C)(C)c2ccc(C)nc2)C1 [Compound 7, (R)-5-(2-(3-(2-ethoxy-1,1,1,3,3,3-hexafluoropropan-2-yl)-3-(4-methylphenethyl)pyrrolidin-1-yl)propan-2-yl)-2-methylpyridine] | > 50 mg/kg | –

Structure (SMILES) | ED50 [1] | further results
CCOC(C(F)(F)F)(C(F)(F)F)[C@]1(CCc2ccc(C#N)cc2)CCN(Cc2ccc(C)nc2)C1 [Compound 8, (R)-4-(2-(3-(2-ethoxy-1,1,1,3,3,3-hexafluoropropan-2-yl)-1-((6-methylpyridin-3-yl)methyl)pyrrolidin-3-yl)ethyl) benzonitrile] | > 50 mg/kg | –
CCOC(C(F)(F)F)(C(F)(F)F)[C@]1(CCc2ccc(C#N)cc2)CCN(Cc2cccnc2)C1 [Compound 9, (R)-4-(2-(3-(2-ethoxy-1,1,1,3,3,3-hexafluoropropan-2-yl)-1-(pyridin-3-ylmethyl)pyrrolidin-3-yl)ethyl) benzonitrile] | > 50 mg/kg | –
CCOC[C@]1(CCc2ccc(C#N)cc2)CCN(C(c2cccnc2)c2cccnc2)C1 [Compound 10, (R)-4-(2-(1-(di(pyridin-3-yl)methyl)-3-(ethoxymethyl)pyrrolidin-3-yl)ethyl) benzonitrile] | > 50 mg/kg | –
CCOC(C(F)(F)F)(C(F)(F)F)[C@]1(CCc2ccc(F)cc2)CCN(Cc2ccc(C)nc2)C1 [Compound 13, (R)-5-((3-(2-ethoxy-1,1,1,3,3,3-hexafluoropropan-2-yl)-3-(4-fluorophenethyl)pyrrolidin-1-yl)methyl)-2-methylpyridine] | > 50 mg/kg | ED50 [2]: ≤ 30 mg/kg; ED50 [4]: > 50 mg/kg
CCOC(C(F)(F)F)(C(F)(F)F)[C@]1(CCc2ccc(F)cc2)CCN(Cc2cccnc2)C1 [Compound 14, (R)-3-((3-(2-ethoxy-1,1,1,3,3,3-hexafluoropropan-2-yl)-3-(4-fluorophenethyl)pyrrolidin-1-yl)methyl)pyridine] | > 50 mg/kg | –
Cc1ccc(C(C)(C)N2CC[C@](CO)(CCc3ccc(F)cc3)C2)cn1 [Compound 15, (R)-(3-(4-fluorophenethyl)-1-(2-(6-methylpyridin-3-yl)propan-2-yl)pyrrolidin-3-yl)methanol] | ≤ 30 mg/kg | –
Cc1ccc(C(C)(C)N2CC[C@@](CCc3ccc(F)cc3)(CS(C)(=O)=O)C2)cn1 [Compound 16, (R)-5-(2-(3-(4-fluorophenethyl)-3-((methylsulfonyl)methyl)pyrrolidin-1-yl)propan-2-yl)-2-methylpyridine] | ≤ 30 mg/kg | –
Cc1ccc(C(C)(C)N2CC[C@@](CCc3ccc(C#N)cc3)(COCc3ccccc3)C2)cn1 [Compound 17, (R)-4-(2-(3-((benzyloxy)methyl)-1-(2-(6-methylpyridin-3-yl)propan-2-yl)pyrrolidin-3-yl)ethyl) benzonitrile] | ≤ 30 mg/kg | –
Cc1ccc(C(C)(C)N2CC[C@](CO)(CCc3ccc(C#N)cc3)C2)cn1 [Compound 18, (R)-4-(2-(3-(hydroxymethyl)-1-(2-(6-methylpyridin-3-yl)propan-2-yl)pyrrolidin-3-yl)ethyl) benzonitrile] | ≤ 30 mg/kg | –
Cc1ccc(C(C)(C)N2CC[C@@](CCc3ccc(C#N)cc3)(CS(C)(=O)=O)C2)cn1 [Compound 19, (R)-4-(2-(1-(2-(6-methylpyridin-3-yl)propan-2-yl)-3-((methylsulfonyl)methyl)pyrrolidin-3-yl)ethyl)benzonitrile] | ≤ 30 mg/kg | –
Cc1ccc(C(C)(C)N2CC[C@@](CCc3ccc(C#N)cc3)(COS(C)=O)C2)cn1 (stereo partly drawn) [Compound 20, ((R)-3-(4-cyanophenethyl)-1-(2-(6-methylpyridin-3-yl)propan-2-yl)pyrrolidin-3-yl)methyl methanesulfinate] | ≤ 30 mg/kg | –
CCOC(C(F)(F)F)(C(F)(F)F)[C@]1(CCc2ccc(C#N)cc2)CCN(C(C)(C)c2ccns2)C1 [Compound 22, (R)-4-(2-(3-(2-ethoxy-1,1,1,3,3,3-hexafluoropropan-2-yl)-1-(2-(isothiazol-5-yl)propan-2-yl)pyrrolidin-3-yl)ethyl) benzonitrile] | ≤ 30 mg/kg | –
CCOC(C(F)(F)F)(C(F)(F)F)[C@]1(COCc2ccccc2)CCN(C(C)(C)c2ccns2)C1 [Compound 23, (R)-5-(2-(3-((benzyloxy)methyl)-3-(2-ethoxy-1,1,1,3,3,3-hexafluoropropan-2-yl)pyrrolidin-1-yl)propan-2-yl)isothiazole] | > 50 mg/kg | –
CCOCC1(CCc2ccccc2)CCN(Cc2ccc(NC(=O)OC)cc2)CC1 [Compound 24] | – | ED50 [4]: > 50 mg/kg
COC(C(F)(F)F)(C(F)(F)F)[C@]1(COCc2ccccc2)CCN(C2(c3ncon3)COC2)C1 [Compound 24] | > 50 mg/kg | –
CCOC[C@]1(CCc2ccc(C#N)cc2)CCN(C(C)c2ccnnc2)C1 (stereo partly drawn) [Compound 25, 4-(2-((3R)-3-(ethoxymethyl)-1-(1-(pyridazin-4-yl)ethyl)pyrrolidin-3-yl)ethyl)benzonitrile] | ≤ 30 mg/kg | –
Cc1ccc(C(C)(C)N2CC[C@@](CCc3ccc(C#N)cc3)(COCC(F)(F)F)C2)cn1 [Compound 26, (R)-4-(2-(1-(2-(6-methylpyridin-3-yl)propan-2-yl)-3-((2,2,2-trifluoroethoxy)methyl)pyrrolidin-3-yl)ethyl)benzonitrile] | > 50 mg/kg | –
CCOC[C@@]1(CCc2ccc(C#N)cc2)CCN(C(c2cccnc2)c2cccnc2)C1 [Compound 27, (S)-4-(2-(1-(di(pyridin-3-yl)methyl)-3-(ethoxymethyl)pyrrolidin-3-yl)ethyl) benzonitrile] | > 50 mg/kg | –
